Reference: ChEMBL document CHEMBL1201862, “PubChem BioAssay data set” (2004)
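48-hour exposure; five concentrations; linearly interpolated endpoints. GI50 is the concentration that inhibits growth by half.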 Calls of active or inactive are those of the source. No stated cut-off is given here; in the data, active = GI50 up to about 1.1 µM and inactive = higher.

Tests used:
Experiment in all cases: inhibition of tumour cell growth, NCI panel, 48 h
DMS-114 = test system: DMS-114
DMS-273 = test system: DMS-273
LXFL 529 = test system: LXFL 529
M19-MEL = test system: M19-MEL
RXF 631 = test system: RXF 631
SNB-78 = test system: SNB-78
HOP-18 = test system: HOP-18
KM-20L2 = test system: KM-20L2
XF498 = test system: XF498

SMILES | GI50 (DMS-114) | GI50 (DMS-273) | GI50 (LXFL 529) | GI50 (M19-MEL) | GI50 (RXF 631) | GI50 (SNB-78) | GI50 (HOP-18) | GI50 (KM-20L2) | GI50 (XF498)
CCC(Oc1ccc(OC)c2ccccc(=O)c12)C(=O)O (stereo unspecified) | > 100 µM (inactive) | > 100 µM (inactive) | > 100 µM (inactive) | > 100 µM (inactive) | > 100 µM (inactive) | > 100 µM (inactive) | – | – | –
c1ccc2c(c1)[Se]c1ccccc1[Se]2 | 67 µM (inactive) | > 100 µM (inactive) | 61.4 µM (inactive) | > 100 µM (inactive) | – | 30.5 µM (inactive) | 4.92 µM (inactive) | > 100 µM (inactive) | > 100 µM (inactive)
O=CN/C=C/c1cc(O)ccc1O [ERBSTATIN] | 17.6 µM (inactive) | 77.1 µM (inactive) | 11.6 µM (inactive) | 13.3 µM (inactive) | – | 19 µM (inactive) | > 40.6 µM (inactive) | 52.2 µM (inactive) | 19.8 µM (inactive)
COc1ccc(OCC(=O)O)c(C(=O)CCC(=O)O)c1 | > 100 µM (inactive) | > 100 µM (inactive) | > 100 µM (inactive) | > 100 µM (inactive) | > 100 µM (inactive) | > 100 µM (inactive) | – | – | > 100 µM (inactive)
O=C1NC(=O)C(CCC(=O)c2ccc3ccccc3c2)C(=O)N1 | > 100 µM (inactive) | > 100 µM (inactive) | > 100 µM (inactive) | > 100 µM (inactive) | > 100 µM (inactive) | > 100 µM (inactive) | > 100 µM (inactive) | > 100 µM (inactive) | > 100 µM (inactive)
COc1ccc(/C=C2/C(=O)N(C(=O)c3ccc(Cl)cc3)N=C2C)cc1OC | > 100 µM (inactive) | – | > 100 µM (inactive) | > 100 µM (inactive) | – | > 100 µM (inactive) | – | > 100 µM (inactive) | > 100 µM (inactive)
C=CCC1(C(=O)OC(C)(C)C)C(OC)=C(C(=O)OC(C)(C)C)C2C1C(C(=O)OC(C)(C)C)=C(OC)C2(CC=C)C(=O)OC(C)(C)C (stereo unspecified) | > 100 µM (inactive) | – | – | > 100 µM (inactive) | – | – | > 100 µM (inactive) | – | > 100 µM (inactive)
Cc1ccc(S(=O)(=O)OC2CC=CC2)cc1 | > 100 µM (inactive) | > 100 µM (inactive) | > 100 µM (inactive) | > 100 µM (inactive) | – | > 100 µM (inactive) | > 100 µM (inactive) | > 100 µM (inactive) | > 100 µM (inactive)
CC(C)c1cc2c(O)c(c1)Cc1cc(C(C)C)cc(c1O)Cc1cc(C(C)C)cc(c1O)Cc1cc(C(C)C)cc(c1O)C2 | > 100 µM (inactive) | > 100 µM (inactive) | – | > 100 µM (inactive) | – | > 100 µM (inactive) | > 100 µM (inactive) | > 100 µM (inactive) | > 100 µM (inactive)
CC(=O)Nc1cc(N(CCOS(C)(=O)=O)CCOS(C)(=O)=O)ccc1N=O | > 100 µM (inactive) | > 100 µM (inactive) | > 100 µM (inactive) | > 100 µM (inactive) | – | – | – | > 100 µM (inactive) | > 100 µM (inactive)
CC(=O)O.CN1CCN(CN2C(=O)C3C4C=CC(C3C2=O)C2C3C(=O)N(CN5CCN(C)CC5)C(=O)C3C42)CC1 (stereo unspecified) | 20.1 µM (inactive) | – | 18.1 µM (inactive) | – | – | – | – | 20.3 µM (inactive) | –
NCCCC(N)(C(=O)O)C(F)F (stereo unspecified) [EFLORNITHINE] | > 5000 µM (inactive) | 1220 µM (inactive) | > 100 µM (inactive) | > 3450 µM (inactive) | > 100 µM (inactive) | > 5000 µM (inactive) | > 50 µM (inactive) | > 5000 µM (inactive) | –
COC(=O)C(=O)C(C(=O)OC)C(=O)C(=O)Nc1c(C)cccc1C (stereo unspecified) | > 100 µM (inactive) | – | > 100 µM (inactive) | > 100 µM (inactive) | > 100 µM (inactive) | > 100 µM (inactive) | > 100 µM (inactive) | > 100 µM (inactive) | > 100 µM (inactive)
CC(C)C1(O)C(c2ccccc2)=C(c2ccccc2)C(c2ccccc2)=C1c1ccccc1 | 3.4 µM (inactive) | 4.46 µM (inactive) | 5.19 µM (inactive) | – | 3.58 µM (inactive) | 11.6 µM (inactive) | 10.9 µM (inactive) | 8.32 µM (inactive) | 2.96 µM (inactive)
CCN(CC)CCN1C(=O)CC2[C@@H]3CCc4cc(OC)ccc4C3CC[C@]2(C)C1=O (stereo partly specified) | – | – | 16.4 µM (inactive) | 18.7 µM (inactive) | – | 28.5 µM (inactive) | – | 20.1 µM (inactive) | –
Cc1ccc(C(=O)/C=C/c2ccccc2O)c(C)c1 | > 100 µM (inactive) | > 100 µM (inactive) | > 100 µM (inactive) | 1.35 µM (inactive) | – | > 100 µM (inactive) | – | > 100 µM (inactive) | –
O=C(CCn1[nH]c(=O)c(Cl)c(Cl)c1=O)NO | > 100 µM (inactive) | > 100 µM (inactive) | > 100 µM (inactive) | > 100 µM (inactive) | – | – | > 100 µM (inactive) | > 100 µM (inactive) | > 100 µM (inactive)
O=C(CNc1ccc2c(=S)c3ccccc3[nH]c2c1)Nc1ccccc1-c1ccccc1NC(=O)CNc1ccc2c(=S)c3ccccc3[nH]c2c1 | 17.1 µM (inactive) | > 46 µM (inactive) | 7.45 µM (inactive) | > 39.2 µM (inactive) | – | 32.9 µM (inactive) | 16.1 µM (inactive) | 19.7 µM (inactive) | 19.1 µM (inactive)
O=C1Nc2ccccc2C1(O)C/C(=N/O)c1ccc2ccccc2c1 (stereo unspecified) | 64.6 µM (inactive) | – | 91.2 µM (inactive) | 45.5 µM (inactive) | 29.7 µM (inactive) | 60.1 µM (inactive) | > 100 µM (inactive) | > 100 µM (inactive) | 93.3 µM (inactive)
COc1cccc(SSc2cccc(OC)c2C(=O)O)c1C(=O)O | > 100 µM (inactive) | > 100 µM (inactive) | > 100 µM (inactive) | > 100 µM (inactive) | > 100 µM (inactive) | > 100 µM (inactive) | > 100 µM (inactive) | > 100 µM (inactive) | > 100 µM (inactive)
CCN(CC)CCNc1c2ccccc2nc2cccc([N+](=O)[O-])c12 | 0.0241 µM (active) | 0.0358 µM (active) | 0.0211 µM (active) | 0.0352 µM (active) | 0.0317 µM (active) | 0.0993 µM (active) | – | 0.0303 µM (active) | 0.0193 µM (active)
COc1ccccc1N1C(=O)/C(=C/c2ccc(N(CCC#N)CCC#N)cc2C)N=C1c1cc([N+](=O)[O-])ccc1Cl | > 100 µM (inactive) | > 100 µM (inactive) | > 100 µM (inactive) | 24.2 µM (inactive) | – | > 100 µM (inactive) | > 100 µM (inactive) | > 100 µM (inactive) | > 100 µM (inactive)
CCc1cc(CCC(=O)Nc2ccccc2[N+](=O)[O-])nc(S)n1 | > 100 µM (inactive) | – | > 100 µM (inactive) | > 100 µM (inactive) | > 100 µM (inactive) | > 100 µM (inactive) | > 100 µM (inactive) | > 100 µM (inactive) | –
